Here are results for 23 compounds from patent US11945781B2, “Compounds for the treatment of acute and chronic kidney disease” (Southern Research Institute, priority 2020, dated 2024).

Like-named read-outs stand apart in the source and are kept apart here.

The test system of the assay is heme oxygenase-1 (HO-1). In words: HO-1 promoter luciferase reporter screen (pHOGL3/4.5+220 stable HEK293 cells). The format is cell-based, human. To be noted: Table 1; for Emax: HEK293, Emax as % of 5 μM hemin; for EC50: evaluation of thioquinolinones, HEK293 HO-1 reporter. As for the experimental part:
The generation of the pHOGL3/4.5+220 construct is described in Deshane, et al. (2010) “SpI regulates chromatin looping between an intronic enhancer and distal promoter of the human heme oxygenase-1 gene in renal cells” J Biol Chem 285(22): 16476-86. See also FIG. 1.
Briefly, BamHI sites were added to the 4.5-kb PCR product generated by long-range PCR from a bacterial artificial chromosome clone containing portions of chromosome 22 (accession no. Z82244), including the HO-1 gene. This fragment was cloned into the Bg/II restriction site of the multiple cloning region to make the parental clone (pHOGL3/4.5). The 220-bp intronic enhancer was amplified with SalI sites on either end and cloned into the SalI site of the vector to generate pHOGL3/4.5+220.
In order to generate cells that stably express luciferase expression vectors that lack a mammalian antibiotic selection cassette, HEK293 cells were co-transfected with either pHOGL3/4.5+220 (Deshane et al, 2010) or the Triple Mutant construct (Liby, Hock et al, 2005; Hock et al, 2007) and pcDNA3.1 Zeocin using Lipofectamine 2000. Cells were cultured in Zeocin (400 ug/ml; Invitrogen) for selection. Individual clones were sorted by flow cytometry and plated into a 96-well plate at a density of one cell per well. Clones were maintained and expanded in complete media (DMEM/10% FBS/1× antibiotic-antimycotic) supplemented with 100 ug/ml Zeocin, and incubated at 37° C. in 5% carbon dioxide. Incorporation of the Luciferase expression vectors was validated by assaying for luciferase. […]
(In general: Reporter assays use an easily measured gene product as a stand-in for the process of interest.)

Turning to `Oc1c(F)cc(CSc2cccc3cccnc23)cc1F` [Compound 1, 2,6-difluoro-4-((quinolin-8-ylthio)methyl)phenol], the Emax (in general, the maximal effect, on the per cent scale that the assay sets) (Homo sapiens) was found to be 154%. Besides, for the setting “Homo sapiens, read-out: EC50”, the 50% effective concentration (EC50) (in general, the concentration that produces a half-maximal response) was found to be 430 nM.
Take `Oc1ccc(CSc2cccc3cccnc23)cc1` [Compound 2]: for the setting “Homo sapiens”, the Emax was found to be 127%. For the setting “Homo sapiens, read-out: EC50”, the EC50 is 340 nM.
Where the note is “Homo sapiens”, `Oc1ccc(CSc2cccc3cccnc23)cc1F` [Compound 3] showed an Emax of 83.7%. For the same compound, the EC50 (Homo sapiens, read-out: EC50) is 200 nM.
As to `Oc1ccc(CSc2cccc3cccnc23)cc1Cl` [Compound 4], the maximal effect (Emax) (Homo sapiens) amounted to 106%. Moreover, for the setting “Homo sapiens, read-out: EC50”, the EC50 is 340 nM.
Taken in the same sequence, the figures for `Oc1c(F)cc(CSc2cccc3cccnc23)cc1Cl` [Compound 5] were 113% and 420 nM.
Compound `Oc1c(F)c(F)c(CSc2cccc3cccnc23)c(F)c1F` [Compound 6] yielded an Emax (Homo sapiens) of 113%. The EC50 (Homo sapiens, read-out: EC50) worked out at 1050 nM.
As for `Oc1c(F)cc(F)cc1CSc1cccc2cccnc12` [Compound 7], for the setting “Homo sapiens”, the Emax turned out to be 55.2%. The EC50 (Homo sapiens, read-out: EC50) was 5250 nM.
With `Fc1cc(F)cc(CSc2cccc3cccnc23)c1` [Compound 8], the 50% effective concentration (EC50) entry is “Inactive”.
`[O-][S+](Cc1cc(F)c(O)c(F)c1)c1cccc2cccnc12` (stereo not drawn) [Compound 9] registered an Emax (Homo sapiens) of 106%. Further, the 50% effective concentration (EC50) (Homo sapiens, read-out: EC50) stood at 340 nM.
Consider `O=S(=O)(Cc1cc(F)c(O)c(F)c1)c1cccc2cccnc12` [Compound 10], for which the EC50 entry is recorded as “Inactive”.
As for `Oc1ccc(COc2cccc3cccnc23)cc1` [Compound 11], the EC50 entry was “Inactive”.
As for `Oc1c(F)cc(CCSc2cccc3cccnc23)cc1F` [Compound 12], the EC50 entry is “Inactive”.
`Oc1ccc(CCSc2cccc3cccnc23)cc1` [Compound 13] had an Emax (Homo sapiens) of 122%. The concentration for a half-maximal effect (EC50) (Homo sapiens, read-out: EC50) was determined as 19000 nM.
With `Oc1ccc(CSc2cccc3cccnc23)cc1` [Compound 14], the EC50 result was “Inactive”.
`Oc1c(F)cc(CSc2ccnc3ccccc23)cc1F` [Compound 15]: the EC50 result is reported as “Inactive”.
As for `Oc1c(F)cc(CSc2nccc3ccccc23)cc1F` [Compound 16], the EC50 entry is given as “Inactive”.
In the case of `Oc1c(F)cc(CSc2ccncc2)cc1F` [Compound 17], the EC50 entry is “Inactive”.
`Oc1c(F)cc(CSc2cccc3ccccc23)cc1F` [Compound 18]: the EC50 result is reported as “Inactive”.
The same measure, in the same setting: then `COc1c(F)cc(CSc2cccc3cccnc23)cc1F` [Compound 19, 8-((3,5-difluoro-4-methoxybenzyl)thio)quinolone], with “Inactive”.
Compound `COc1c(F)cc(CCSc2cccc3cccnc23)cc1F` [Compound 20] displayed an Emax (Homo sapiens) of 69.9%. The EC50 (Homo sapiens, read-out: EC50) was 20000 nM.
For `O=S(=O)(Nc1cc(F)c(O)c(F)c1)c1cccc2cccnc12` [Compound 21], the 50% effective concentration (EC50) entry was “Inactive”.
Consider `O=C(Nc1cccc2cccnc12)c1cc(F)c(O)c(F)c1` [Compound 22], for which the concentration giving a half-maximal response (EC50) result was “Inactive”.
Regarding `O=C(Nc1cc(F)c(O)c(F)c1)c1cccc2cccnc12` [Compound 23], the EC50 result is “Inactive”.
